From patent US20180002288A1, “USE OF PICOLINAMIDES AS FUNGICIDES” (DOW AGROSCIENCES LLC, priority 2014, published 2018)
Where two headings read alike, the source gives them in different places.

Tests used:
[1] = test system: Zymoseptoria tritici; experiment: Leaf Blotch of Wheat fungicidal activity (SEPTTR); format: in vivo; conditions: for pest or weed control at 100 ppm: wheat, high volume; for pest or weed control at 121.5 g/ha: Low Volume Cereal Activity at 121.5 g/Ha
Method: (§1) All fungicides were evaluated using the aforementioned method for their activity vs. all target diseases, unless stated otherwise. Wheat leaf blotch and brown rust activity were also evaluated using track spray applications, in which case the fungicides were formulated as EC formulations, containing 0.1% Trycol 5941 in the spray solutions. Wheat plants (variety Yuma) were grown from seed in a greenhouse in 50% mineral soil/50% soil-less Metro mix until the first leaf was fully emerged, with 7-10 seedlings per pot. These plants were inoculated with an aqueous spore suspension of Zymoseptoria tritici either prior to or after fungicide treatments. After inoculation the plants were kept in 100% relative humidity (one day in a dark dew chamber followed by two to three days in a lighted dew chamber at 20° C.) to permit spores to germinate and infect the leaf. The plants were then transferred to a greenhouse set at 20° C. for disease to develop. When disease symptoms were fully expressed on the 1st leaves of untreated plants, infection levels were assessed on a scale of 0 to 100 percent disease severity. Percent disease control was calculated using the ratio of disease severity on treated plants relative to untreated plants.

[2] = test system: Puccinia triticina; experiment: Wheat Brown Rust fungicidal activity (PUCCRT); format: in vivo; conditions: for pest or weed control at 100 ppm: wheat, high volume; for pest or weed control at 121.5 g/ha: Low Volume Cereal Activity at 121.5 g/Ha
Method: as §1, with “plants. Wheat plants (variety Yuma) were grown from seed in a greenhouse in 50% mineral soil/50% soil-less Metro mix until the first leaf was fully emerged, with 7-10 seedlings per pot. These plants were inoculated with an aqueous spore suspension of Puccinia triticina either prior to or after fungicide treatments. […] The plants were then transferred to a greenhouse set at 24° C. for disease to develop. Fungicide formulation, application and disease assessment followed the procedures as described in the Example A.” for “plants.”

[3] = 24 h, 1 Day Protectant, read-out: SEPTTR 1DP % Control rating
[4] = 72 h, 3 Day Curative, read-out: SEPTTR 3DC % Control rating
[5] = 24 h, 1 Day Protectant, read-out: PUCCRT 1DP % Control rating
[6] = 72 h, 3 Day Curative, read-out: PUCCRT 3DC % Control rating
[7] = 24 h, 1 Day Protectant, read-out: SEPTTR 1DP (Wheat Leaf Blotch, 1 Day Protectant)
[8] = 72 h, 3 Day Curative, read-out: SEPTTR 3DC (Wheat Leaf Blotch, 3 Day Curative)
[9] = 24 h, 1 Day Protectant, read-out: PUCCRT 1DP (Wheat Brown Rust, 1 Day Protectant)
[10] = 72 h, 3 Day Curative, read-out: PUCCRT 3DC (Wheat Brown Rust, 3 Day Curative)

Row | SMILES | pest or weed control at 100 ppm [1, 3] [%] | pest or weed control at 100 ppm [1, 4] [%] | pest or weed control at 100 ppm [2, 5] [%] | pest or weed control at 100 ppm [2, 6] [%] | pest or weed control at 121.5 g/ha [1, 7] [%] | pest or weed control at 121.5 g/ha [1, 8] [%] | pest or weed control at 121.5 g/ha [2, 9] [%] | pest or weed control at 121.5 g/ha [2, 10] [%]
1 | COc1ccnc(C(=O)N[C@@H](C)C(=O)O[C@@H](C)[C@@H](OCC2CC2)c2ccccc2)c1O [Example 142] | < 80 | < 80 | > 80 | > 80 | – | – | – | –
2 | COc1ccnc(C(=O)N[C@@H](C)C(=O)O[C@@H](C)[C@H](Oc2ccc(C)cc2)c2ccc(F)cc2)c1OC(C)=O [Example 247] | – | – | – | – | > 80 | > 80 | > 80 | > 80
3 | COc1cc(F)ccc1[C@@H](OCC(F)F)[C@H](C)OC(=O)[C@H](C)NC(=O)c1nccc(OC)c1O [Example 288] | < 80 | > 80 | > 80 | > 80 | – | – | – | –
4 | COc1cc(F)ccc1[C@@H](Oc1ccc(C)cc1)[C@H](C)OC(=O)[C@H](C)NC(=O)c1nccc(OC)c1O [Example 173] | > 80 | > 80 | > 80 | > 80 | – | – | – | –
5 | CC[C@H](NC(=O)c1nccc(OC)c1O)C(=O)O[C@@H](C)[C@H](Oc1cc(F)ccc1F)c1ccccc1 [Example 123] | < 80 | < 80 | > 80 | < 80 | – | – | – | –
6 | COc1ccnc(C(=O)N[C@@H](C)C(=O)O[C@@H](C)[C@@H](OC)c2ccccc2)c1OC(C)=O [Example 229] | – | – | – | – | < 0 | < 80 | < 0 | > 80
7 | COc1cccc([C@@H](Oc2ccccc2)[C@H](C)OC(=O)[C@H](C)NC(=O)c2nccc(OC)c2OCOC(C)=O)c1 [Example 258] | – | – | – | – | > 80 | > 80 | > 80 | > 80
8 | CC[C@H](NC(=O)c1nccc(OC)c1OC(C)=O)C(=O)O[C@@H](C)[C@H](Oc1cc(F)cc(Cl)c1)c1ccccc1 [Example 209] | – | – | – | – | > 80 | > 80 | > 80 | < 80
9 | COc1ccnc(C(=O)N[C@@H](C)C(=O)O[C@@H](C)[C@H](Oc2ccccc2Cl)c2ccccc2)c1O [Example 117] | > 80 | > 80 | > 80 | > 80 | – | – | – | –
10 | COc1ccnc(C(=O)N[C@@H](C)C(=O)O[C@@H](C)[C@H](Oc2ccccc2)c2ccc(F)cc2OCC(F)F)c1O [Example 176] | > 80 | > 80 | > 80 | > 80 | – | – | – | –
11 | COc1ccnc(C(=O)N[C@@H](C)C(=O)O[C@@H](C)[C@H](Oc2cccc(Cl)c2)c2ccccc2)c1O [Example 118] | > 80 | > 80 | > 80 | > 80 | – | – | – | –
12 | COc1ccnc(C(=O)N[C@@H](C)C(=O)O[C@@H](C)[C@H](Oc2ccccc2)c2ccc(C)cc2)c1O [Example 154] | > 80 | > 80 | > 80 | > 80 | – | – | – | –
13 | COc1ccnc(C(=O)N[C@@H](C)C(=O)O[C@@H](C)[C@@H](Oc2ccccc2)c2ccccc2)c1O [Example 135] | > 80 | > 80 | > 80 | < 0 | – | – | – | –
14 | COc1ccnc(C(=O)N[C@@H](C)C(=O)O[C@@H](C)[C@H](Oc2ccccc2)c2ccccc2)c1O [Example 114] | > 80 | > 80 | > 80 | > 80 | – | – | – | –
15 | COc1ccnc(C(=O)N[C@@H](C)C(=O)O[C@@H](C)[C@H](OCC2CC2)c2ccccc2)c1O [Example 113] | > 80 | > 80 | > 80 | < 80 | – | – | – | –
16 | COc1ccnc(C(=O)N[C@@H](C)C(=O)O[C@@H](C)[C@H](Oc2cccc(F)c2)c2ccccc2)c1O [Example 127] | > 80 | > 80 | > 80 | > 80 | – | – | – | –
17 | COc1ccnc(C(=O)N[C@@H](C)C(=O)O[C@@H](C)[C@H](Oc2ccccc2)c2ccc(F)cc2OCC2CC2)c1O [Example 175] | > 80 | < 80 | > 80 | > 80 | – | – | – | –
18 | COc1ccnc(C(=O)N[C@@H](C)C(=O)O[C@@H](C)[C@@H](OC)c2ccccc2)c1O [Example 140] | < 0 | < 80 | < 80 | > 80 | – | – | – | –
19 | COc1ccnc(C(=O)N[C@@H](C)C(=O)O[C@@H](C)[C@H](Oc2ccc(C(F)(F)F)cc2)c2ccccc2)c1O [Example 125] | < 80 | < 80 | < 80 | < 0 | – | – | – | –
20 | COc1ccnc(C(=O)N[C@@H](C)C(=O)O[C@@H](C)[C@H](Oc2ccccc2)c2ccc3ccccc3c2)c1O [Example 166] | > 80 | > 80 | > 80 | > 80 | – | – | – | –
21 | CC[C@H](NC(=O)c1nccc(OC)c1OCOC(C)=O)C(=O)O[C@@H](C)[C@H](Oc1cc(F)cc(Cl)c1)c1ccccc1 [Example 208] | – | – | – | – | > 80 | > 80 | > 80 | < 80
22 | COc1ccnc(C(=O)N[C@@H](C)C(=O)O[C@@H](C)[C@H](Oc2ccc(C)cc2Cl)c2ccc(F)cc2)c1O [Example 150] | > 80 | < 80 | > 80 | > 80 | – | – | – | –
23 | COc1ccnc(C(=O)N[C@@H](C)C(=O)O[C@@H](C)[C@H](Oc2ccc(Cl)cc2Cl)c2ccccc2)c1OC(C)=O [Example 200] | – | – | – | – | > 80 | > 80 | > 80 | < 80
24 | COc1ccnc(C(=O)N[C@@H](C)C(=O)O[C@@H](C)[C@H](Oc2ccccc2)c2cccc3ccccc23)c1O [Example 165] | > 80 | > 80 | > 80 | > 80 | – | – | – | –
25 | COc1ccnc(C(=O)N[C@@H](C)C(=O)O[C@@H](C)[C@H](Oc2cccc(Cl)c2)c2ccccc2)c1OC(C)=O [Example 203] | – | – | – | – | > 80 | > 80 | > 80 | < 80
26 | COc1ccnc(C(=O)N[C@@H](Cc2ccccc2)C(=O)O[C@@H](C)[C@H](Oc2cccc(F)c2)c2ccccc2)c1OCOC(C)=O [Example 189] | – | – | – | – | < 80 | < 0 | > 80 | < 80
